Results as given in PubChem BioAssay AID1963976 (Molecular Pharmacology Branch, DTP, NCI, 2024).
Blank lines part the entries; values can stand above or below the compound they belong to.

System: 435261-313-R-J1-PDC tumor spheroid viability
Experiment: Anticancer human tumor 435261-313-R-J1-PDC patient-derived colon adenocarcinoma cell line growth inhibition [PI3K]
Settings: spheroids with HUVEC and MSC; for IC50: curve of first compound; for viability, T/C: stronger effect = lower value
In short: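 Stroma-containing spheroids: tumor line, pooled-donor HUVEC, hMSC. Treatments: targeted agents with PI3K inhibitors. Dosing: clinically relevant, half-log spacing, 10 microM ceiling without known Cmax. Read-out: cell viability.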

[1] = second compound 0.0316 µM, first compound 0.0316 µM
[2] = second compound 0.0316 µM, first compound 0.1 µM
[3] = second compound 0.0316 µM, first compound 0.316 µM
[4] = second compound 0.0316 µM, first compound 1 µM
[5] = second compound 0.0316 µM, first compound 3.16 µM
[6] = second compound 0.0316 µM, first compound 10 µM
[7] = second compound 0.1 µM, first compound 0.0316 µM
[8] = second compound 0.1 µM, first compound 0.1 µM
[9] = second compound 0.1 µM, first compound 0.316 µM
[10] = second compound 0.1 µM, first compound 1 µM
[11] = second compound 0.1 µM, first compound 3.16 µM
[12] = second compound 0.1 µM, first compound 10 µM
[13] = second compound 0.316 µM, first compound 0.0316 µM
[14] = second compound 0.316 µM, first compound 0.1 µM
[15] = second compound 0.316 µM, first compound 0.316 µM
[16] = second compound 0.316 µM, first compound 1 µM
[17] = second compound 0.316 µM, first compound 3.16 µM
[18] = second compound 0.316 µM, first compound 10 µM
[19] = second compound 1 µM, first compound 0.0316 µM
[20] = second compound 1 µM, first compound 0.1 µM
[21] = second compound 1 µM, first compound 0.316 µM
[22] = second compound 1 µM, first compound 1 µM
[23] = second compound 1 µM, first compound 3.16 µM
[24] = second compound 1 µM, first compound 10 µM
[25] = second compound 3.16 µM, first compound 0.0316 µM
[26] = second compound 3.16 µM, first compound 0.1 µM
[27] = second compound 3.16 µM, first compound 0.316 µM
[28] = second compound 3.16 µM, first compound 1 µM
[29] = second compound 3.16 µM, first compound 3.16 µM
[30] = second compound 3.16 µM, first compound 10 µM
[31] = second compound 10 µM, first compound 0.0316 µM
[32] = second compound 10 µM, first compound 0.1 µM
[33] = second compound 10 µM, first compound 0.316 µM
[34] = second compound 10 µM, first compound 1 µM
[35] = second compound 10 µM, first compound 3.16 µM
[36] = second compound 10 µM, first compound 10 µM
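Also: spheroids exposed to compounds for 7 days.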

IC50 (second compound 0.0316 µM): > 10 µM | IC50 (second compound 0.1 µM): > 10 µM | IC50 (second compound 0.316 µM): > 10 µM | IC50 (second compound 1 µM): < 0.0316 µM | IC50 (second compound 3.16 µM): < 0.0316 µM | IC50 (second compound 10 µM): < 0.0316 µM
Structure (SMILES): C=CC(=O)N1CCN(c2nc(=O)n(-c3c(C)ccnc3C(C)C)c3nc(-c4c(O)cccc4F)c(F)cc23)C(C)C1 (stereo unspecified) + Cc1nc(NC(=O)N2CCCC2C(N)=O)sc1-c1ccnc(C(C)(C)C(F)(F)F)c1
viability, T/C [1]: 70.5% | viability, T/C [2]: 84% | viability, T/C [3]: 80.8% | viability, T/C [4]: 91.5% | viability, T/C [5]: 112% | viability, T/C [6]: 121% | viability, T/C [7]: 71.5% | viability, T/C [8]: 71.3% | viability, T/C [9]: 73.5% | viability, T/C [10]: 75% | viability, T/C [11]: 129% | viability, T/C [12]: 119% | viability, T/C [13]: 49.5% | viability, T/C [14]: 52.4% | viability, T/C [15]: 56.9% | viability, T/C [16]: 58.4% | viability, T/C [17]: 77.1% | viability, T/C [18]: 78.9% | viability, T/C [19]: 35.1% | viability, T/C [20]: 25.1% | viability, T/C [21]: 27.6% | viability, T/C [22]: 39.6% | viability, T/C [23]: 36.6% | viability, T/C [24]: 54.8% | viability, T/C [25]: 15.3% | viability, T/C [26]: 19.4% | viability, T/C [27]: 17.9% | viability, T/C [28]: 23% | viability, T/C [29]: 24.3% | viability, T/C [30]: 18.6% | viability, T/C [31]: 9.68% | viability, T/C [32]: 9.35% | viability, T/C [33]: 8.96% | viability, T/C [34]: 9.4% | viability, T/C [35]: 9.55% | viability, T/C [36]: 6.21%

IC50 (second compound 0.0316 µM): 0.579 µM | IC50 (second compound 0.1 µM): 0.4 µM | IC50 (second compound 0.316 µM): < 0.0316 µM | IC50 (second compound 1 µM): < 0.0316 µM | IC50 (second compound 3.16 µM): < 0.0316 µM | IC50 (second compound 10 µM): < 0.0316 µM
Structure (SMILES): Cn1ncc(Cl)c1-c1cc(C(=O)NC(CN)Cc2cccc(F)c2)sc1Cl (stereo unspecified) + Cc1nc(NC(=O)N2CCCC2C(N)=O)sc1-c1ccnc(C(C)(C)C(F)(F)F)c1
viability, T/C [1]: 83.5% | viability, T/C [2]: 67.3% | viability, T/C [3]: 71.8% | viability, T/C [4]: 31.2% | viability, T/C [5]: 18.6% | viability, T/C [6]: 6.47% | viability, T/C [7]: 58.5% | viability, T/C [8]: 82% | viability, T/C [9]: 51.6% | viability, T/C [10]: 28.1% | viability, T/C [11]: 21.7% | viability, T/C [12]: 6.76% | viability, T/C [13]: 42.9% | viability, T/C [14]: 41% | viability, T/C [15]: 38% | viability, T/C [16]: 27.2% | viability, T/C [17]: 14.2% | viability, T/C [18]: 7.01% | viability, T/C [19]: 31.9% | viability, T/C [20]: 34.8% | viability, T/C [21]: 29.2% | viability, T/C [22]: 19.1% | viability, T/C [23]: 16.2% | viability, T/C [24]: 4.12% | viability, T/C [25]: 15.7% | viability, T/C [26]: 14.7% | viability, T/C [27]: 15.8% | viability, T/C [28]: 16.9% | viability, T/C [29]: 11.9% | viability, T/C [30]: 1.21% | viability, T/C [31]: 9.08% | viability, T/C [32]: 7.96% | viability, T/C [33]: 6.42% | viability, T/C [34]: 8.32% | viability, T/C [35]: 4.5% | viability, T/C [36]: 0.47%

IC50 (second compound 0.0316 µM): 0.147 µM | IC50 (second compound 0.1 µM): 0.119 µM | IC50 (second compound 0.316 µM): < 0.0316 µM | IC50 (second compound 1 µM): < 0.0316 µM | IC50 (second compound 3.16 µM): < 0.0316 µM | IC50 (second compound 10 µM): < 0.0316 µM
Structure (SMILES): Cn1nccc1Nc1nccc(-c2ccn(C(CO)c3ccc(Cl)c(F)c3)c(=O)c2)n1 (stereo unspecified) + Cc1nc(NC(=O)N2CCCC2C(N)=O)sc1-c1ccnc(C(C)(C)C(F)(F)F)c1
viability, T/C [1]: 62.5% | viability, T/C [2]: 58.2% | viability, T/C [3]: 37% | viability, T/C [4]: 24.5% | viability, T/C [5]: 20.9% | viability, T/C [6]: 11.4% | viability, T/C [7]: 53.1% | viability, T/C [8]: 54.8% | viability, T/C [9]: 32.4% | viability, T/C [10]: 18.5% | viability, T/C [11]: 17.9% | viability, T/C [12]: 10.8% | viability, T/C [13]: 36% | viability, T/C [14]: 36.4% | viability, T/C [15]: 21.3% | viability, T/C [16]: 12.9% | viability, T/C [17]: 14% | viability, T/C [18]: 7.34% | viability, T/C [19]: 19.1% | viability, T/C [20]: 18.9% | viability, T/C [21]: 11.6% | viability, T/C [22]: 8% | viability, T/C [23]: 7.78% | viability, T/C [24]: 3.02% | viability, T/C [25]: 13.6% | viability, T/C [26]: 10.8% | viability, T/C [27]: 9.01% | viability, T/C [28]: 4.15% | viability, T/C [29]: 3.68% | viability, T/C [30]: 1.12% | viability, T/C [31]: 7.41% | viability, T/C [32]: 4.45% | viability, T/C [33]: 2.55% | viability, T/C [34]: 1.89% | viability, T/C [35]: 0.52% | viability, T/C [36]: 0.24%
